The results in this text go back to US20240382517A1, “Topical Pharmaceutical Skin Composition for the Delivery of Nitric Oxide in Combination with Other Topical Dermatologic Agents” (NOxy Health Products, Inc., priority 2023, published 2024).

Common to all, as to format: physicochemical
Series [1] can be described thus: NOx production of mixed foams, Thermoscientific 42iQLS Gas Analyzer. The conditions noted are these: 0.4 M, 0.5 M, 0.6 M ascorbic acid as first (A) solution + second (B) solution without BAC; compared to citric acid; FIG. 4. The protocol: Methods. Solutions A and B were agitated by vigorous shaking until they produced foams. Then, two pumps of foam A (from Solution A) and foam B (from Solution B) were added to a weigh boat, and then the resulting mixture was thoroughly mixed with a gloved finger for five seconds. The resulting mixture was then placed in the sample chamber for measurement using a Thermoscientific 42iQLS Gas Analyzer. The measured concentration of the NOx produced was recorded every ten seconds. Using the Ideal Gas Law, the mass in mols of NOx was calculated.
The first (A) solution was prepared as described in Example 1, except BAC was not included. The second (B) solution was prepared by dissolving salicylic acid in a stoichiometric amount of sodium hydroxide dissolved in water. Once all of the salicylic acid was dissolved, sodium nitrite and coco betaine were added. The first (A) and second (B) solutions were then mixed. A foam was produced upon the mixing/priming of the first (A) solution and the second (B) solution.
Three solutions of ascorbic acid (0.4 M, 0.5 M, and 0.6 M) were prepared and used as first (A) solutions. The second (B) solution was as provided in Example 1 except that BAC was not included. The solutions were poured into small foam dispensers. One squirt of foam from each of the first (A) solution and the second (B) solution was combined in a weight boat and NOx formation was measured.

Series [2] in a line: NOx release from mixed liquids, Thermoscientific 42iQLS Gas Analyzer. From the text: For the NO release testing, one mL of each solution was dispensed into a weight boat using the pipetter. A new pipette tip was used for each aliquot. For NO release measurements, the weigh boat was then placed into the sampling bin of a Thermoscientific 42iQLS Gas Analyzer, and the lid placed on top. The analyzer began measuring NOx released from the mixed liquid in the weigh boat as indicated by the rise of both the NO and NO2 measurements on the screen of the analyzer, a 10-minute timer was started.
Once the datalogger had collected 70 time points (700 seconds) of data: • 1. the data logging program was halted • 2. The weigh boat was removed from the chamber and disposed of in a separate room • 3. A fan was used to blow fresh air into the testing chamber for 10 seconds • 4. The next test was conducted when the analyzer measured less than 5 ppm total NOx […]
About 1 mL of Manuka honey was mixed with 1 mL of standard second (B) solution (not including BAC). […]

A short description of series [3]: pH of lidocaine HCl solution, calibrated lab pH meter. The conditions noted are these: 4 percent solution in water. As for the experimental part:
A 4% w/w solution of lidocaine in deionized water was prepared. The pH of the solution was measured using a conventional calibrated lab pH meter.

Series [4] is described as follows: Mixing of lidocaine HCl solution into the first (A) solution in a stable manner. Conditions: first (A) solution not including BAC; monitoring time three minutes. The text has this:
The monitoring time was three minutes.

Entries after “also recorded” stand apart in the source; their conditions may differ. Structures can show the parent of a compound that is named as a salt.

In the case of `O=C1O[C@H]([C@@H](O)CO)C(O)=C1O` [ascorbic acid], the “production of NOx” value in series [1] is “lower levels of production of NOx than citric acid”.
`CCN(CC)CC(=O)Nc1c(C)cccc1C` [lidocaine HCl]: the NOx release result in series [2] (4 percent lidocaine HCl solution mixed with second (B) solution (no BAC) only, FIG. 6) is “NO was produced; also recorded: Only a small amount of NOx was released”; in series [2] (4 percent lidocaine HCl solution mixed with standard first (A) and second (B) solutions (no BAC), FIG. 7), “NO was also produced; also recorded: a large amount of NOx was released”. The compound further displayed a pH in series [3] of 4.16. In series [4], the “reaction on mixing with the standard first (A) solution” value is “No reaction was observed”.
